Measurements reported in article PMC10517462, “Small molecule targeting of the p38/Mk2 stress signaling pathways to improve cancer treatment” (BMC Cancer, 2023).
Like-named read-outs stand apart in the source and are kept apart here.

Experiments:
[1] = system: NCI-H69 cells; test: FACS-based (DRAQ7) viability assay; assay type: cell-based, human
Description: […] Etoposide, SB203580 and MK2.III were all dissolved in 0.2% of DMSO before use. Cells treated only with the carrier molecule DMSO (0.2%) served as a control.
Viability analysis was performed by staining with the […], stoichiometric DNA stain DRAQ7 (640 or 633 nm excitation and 670 nm emission; Biostatus Limited). After 48-h treatment with DNA damaging agents and/or inhibitors, cells were washed once with RPMI 1640 and resuspended in 1 ml culture media at a concentration of less than 5 × 10^5/ ml. Cells were stained with 20 µM of DRAQ7 and incubated at 37 °C for 10 min before FACS Calibur cytometer analysis. Fluorescent signals were amplified using linear mode. Cell cycle analysis was performed either by staining DRAQ7 or Propidium Iodide (PI). Cells were stained with 20 µM of DRAQ7 and incubated at 37 °C for 10 min before analysis on a FACSCalibur cytometer. Propidium Iodide (PI, excited with 488 nm laser, collected with 585/52 bandpass filter) was used in the large-scale experiments. Samples were then fixed with 70% EtOH following the viability assay and stored at 4 °C overnight before the experiment. After fixation with 70% EtOH (added drop-wise) for 24 h, samples were centrifuged into the pellet and then washed twice with ice-cold PBS. The supernatant was discarded and pellets were resuspended in 100 µl of RNase A (100 µg/ml) and 400 µl of PI ([…] in PBS). Analysis of flow cytometry data was performed using FlowJo software. Untreated, unstained cells were used as a negative control to determine the location of viable cells on the dot plots. Events below a threshold size were interpreted as cellular debris and were removed from the dataset, leaving a whole cell population.

[2] = system: MDA-MB-231 breast cancer cell line; test: CCK8 cell viability assay, MDA-MB-231; assay type: cell-based, human; settings: MK2.III 1 µM or etoposide 150 µM alone, 24 h
Description: (§1) To assess the effect of MK2.III kinase inhibitor and the etoposide (VP-16) on the viability of different cancer cell lines, cells were seeded in 96-well plates in a concentration of 5000 cells per well. After 12 h, etoposide and 1 μM MK2.III diluted in culture media were added into the wells for 24 h. NCI-H69 cells were exposed to a series of etoposide concentrations from 20 μM to 150 μM. MDA-MB-231, SW 620, and SW 480 cell lines were incubated with 150 μM etoposide. After treatment, 10 μL of the CCK-8 reagent (96992, Sigma) was added to each well for 1 h followed by optical density measurement at 450 nm using hybrid plate reader Synergy H1.

[3] = system: SW480 colorectal cancer cell line; test: CCK8 cell viability assay, SW480; assay type: cell-based, human; settings: etoposide 150 µM alone, 24 h
Description: as §1

[4] = system: NCI-H69 cells; test: CCK8-based cell viability assay, NCI-H69; set-up: species or system human; settings: 24 h
Description: as §1

[5] = system: NCI-H69 cells; test: FACS-based cell cycle analysis; set-up: species or system human; settings: single treatment, increasing dose
Description: The cells were grown in 12 well plates (Scientific Laboratory Supplies Limited, UK) in RPMI 1640 (Gibco, UK) supplemented with 10% FBS (Autogen Bioclear, UK) and 10,000 U/ml penicillin and 10 mg/ml streptomycin (Sigma, UK) at 37 °C under 5% CO2 and treated with 10, 20, 50, 100 and 150 µM of DNA damaging agent etoposide (VP-16) (Sigma, UK) in the presence or absence of p38MAPK inhibitor SB203580 (Tocris Chemical Co., UK) or MK2 inhibitor MK2.III (Merck, UK) in concentrations of 0, 0.3125, 0.625, 1.25, 2.5, and 5.0 µM. Etoposide, SB203580 and MK2.III were all dissolved in 0.2% of DMSO before use. Cells treated only with the carrier molecule DMSO (0.2%) served as a control.
Viability analysis was performed by staining with the […], stoichiometric DNA stain DRAQ7 (640 or 633 nm excitation and 670 nm emission; Biostatus Limited). After 48-h treatment with DNA damaging agents and/or inhibitors, cells were washed once with RPMI 1640 and resuspended in 1 ml culture media at a concentration of less than 5 × 10^5/ ml. Cells were stained with 20 µM of DRAQ7 and incubated at 37 °C for 10 min before FACS Calibur cytometer analysis. Fluorescent signals were amplified using linear mode. Cell cycle analysis was performed either by staining DRAQ7 or Propidium Iodide (PI). Cells were stained with 20 µM of DRAQ7 and incubated at 37 °C for 10 min before analysis on a FACSCalibur cytometer. […]

[6] = system: NCI-H69 xenograft; test: Tumor (xenograft) suppression with combination chemotherapy in SCID mice; assay type: in vivo; settings: for Tumor Volume (mm^3) median (25th and 75th quartile): VP-16 12 mg/kg
Description: To establish the most suitable xenograft model for the main experiment we used two mouse lines – BALB/c Nude and SCID (both female, 6 weeks, n = 20, Charles River). Both mouse lines were injected with NCI-H69 cancer cells (xenograft). Before injection, cells were grown at 37 °C in RPMI-1640 medium containing 10% FBS and pen/strep. Cells were mixed with Matrigel (1:1) and depending on the group 5 × 10^6 or 10 × 10^6 cells were injected into a mouse subcutaneously along the spine to the level of the left scapula. Mice were divided into 4 groups: (1) 5 × 10^6 NCI-H69 SCID (n = 5); (2) 5 × 10^6 NCI-H69 Nude (n = 5); (3) 10 × 10^6 NCI-H69 SCID (n = 5); and (4) 10 × 10^6 NCI-H69 Nude (n = 5).
The main experiment (injection of the drugs) took place after the tumor growth was established. The tumor growth in mice following the injection of cells was monitored twice a week and upon reaching the volume of ~ 100 mm^3, animals were randomized into 5 groups (12 female SCID mice in each group). The drug treatment was performed as follows: the first group was a control and received a placebo in the form of PBS (tumor volume 95 ± 38 mm^3); the second group received 12 mg/kg of Etoposide (tumor volume 101 ± 51 mm^3); the third group was injected with 4 mg/kg of MK2.III (tumor volume 105 ± 44 mm^3); fourth and fifth groups were injected with 12 mg/kg of Etoposide and 4 mg/kg or 2 mg/kg of MK2.III (tumor volumes 112 ± 57 and 107 ± 49 mm^3 respectively). Drugs were injected intraperitoneally daily. Etoposide was injected 3 days after the randomization into groups and MK2.III was administered for 28 days. Tumor growth/suppression was measured using calipers every 3–4 days for the duration of the 28-day treatment and the tumor volume was calculated as follows:[…],
Antitumor properties of drugs in the test group were determined based on the slowing of the tumor growth or tumor volume compared with the control group receiving PBS. Animal welfare was monitored throughout the study period to ensure that animals in distress were euthanized by carbon dioxide asphyxiation. All the animals were also euthanized by carbon dioxide asphyxiation following the completion of the study.
Descriptive statistics were used to summarize the tumor size and data reported as medians and 25th and 75th quartiles. Wilcoxon sum rank test was used to investigate the effects of the treatments on tumor growth. […] Statistical analyses were performed on the SigmaPlot 11.0 software.

[7] = system: SW620 colorectal cancer cell line; test: CCK8 cell viability assay, SW620; assay type: cell-based, human; settings: MK2.III 1 µM or etoposide 150 µM alone, 24 h
Description: as §1

Work on `C[S+]([O-])c1ccc(-c2nc(-c3ccncc3)c(-c3ccc(F)cc3)[nH]2)cc1` (stereo not shown) [SB203580] yielded a viability at 0.321 µM ([1]; Homo sapiens, NCI-H69, Table 1 dose response, agent alone 0.321 µM (lowest dose), 48 h, read-out: Viable cells (%)) of 89%, a viability at 0.626 µM ([1]; Homo sapiens, NCI-H69, Table 1 dose response, agent alone 0.626 µM, 48 h, read-out: Viable cells (%)) of 89.8% and a viability at 1.25 µM ([1]; Homo sapiens, NCI-H69, Table 1 dose response, agent alone 1.25 µM, 48 h, read-out: Viable cells (%)) of 89%. The viability at 2.5 µM ([1]; Homo sapiens, NCI-H69, Table 1 dose response, agent alone 2.5 µM, 48 h, read-out: Viable cells (%)) was 89.4%, the viability at 5 µM ([1]; Homo sapiens, NCI-H69, Table 1 dose response, agent alone 5.0 µM (highest dose), 48 h, read-out: Viable cells (%)) was 85.1% and the “Effect on NCI-H69 cell viability compared to the DMSO control” value ([1]; inhibitor alone at 2.5 µM) was “did not affect”.
With `COc1cc([C@@H]2c3cc4c(cc3[C@@H](O[C@@H]3O[C@@H]5CO[C@@H](C)O[C@H]5[C@H](O)[C@H]3O)[C@H]3COC(=O)[C@H]23)OCO4)cc(OC)c1O` [VP-16 (Etoposide), etoposide] the “Effect of single agent on viability” value [2] was “did not affect the viability”, the “Decrease of viability by single agent” value [3] was 65% and the “Percentage of surviving cells” value ([4]; etoposide 20 µM) was 72%. The “Percentage of surviving cells” value ([4]; etoposide 150 µM) was 36%, the “Effect on cell cycle profile, single agent” value [5] was “G2 cell cycle arrest” and the “Difference in tumor size versus control” value ([6]; at any checkpoint, etoposide 12 mg/kg, MK2.III 4 mg/kg, or etoposide + MK2.III 2 mg/kg) was “no significant difference”. The “Tumor Volume (mm^3) median (25th and 75th quartile)” value (“Tumor Volume (mm^3) median” below) ([6]; day 11 upon treatment, MK2.III 4 mg/kg IP daily) was 556(360;839) mm^3, the “Tumor Volume (mm^3) median” value ([6]; day 18 upon treatment, MK2.III 4 mg/kg IP daily) was 1219 (995;1387)^*** mm^3 and the “Tumor Volume (mm^3) median” value ([6]; day -1 upon treatment (baseline), MK2.III 4 mg/kg IP) was 93.5 (66;125) mm^3. The viability at 10 µM ([1]; Homo sapiens, NCI-H69, Table 1 dose response, agent alone 10 µM, 48 h, read-out: Viable cells (%)) was 75.7%, the viability at 20 µM ([1]; Homo sapiens, NCI-H69, Table 1 dose response, agent alone 20 µM, 48 h, read-out: Viable cells (%)) was 76.8% and the viability at 50 µM ([1]; Homo sapiens, NCI-H69, Table 1 dose response, agent alone 50 µM, 48 h, read-out: Viable cells (%)) was 65.2%. For the same compound, the viability at 100 µM ([1]; Homo sapiens, NCI-H69, Table 1 dose response, agent alone 100 µM, 48 h, read-out: Viable cells (%)) was 61.3%, the viability at 150 µM ([1]; Homo sapiens, NCI-H69, Table 1 dose response, agent alone 150 µM, 48 h, read-out: Viable cells (%)) was 55.4% and the viability at 20 µM ([1]; Homo sapiens, NCI-H69, Table 2, VP-16 20 µM, alone or with MK2.III 1.0 µM or SB203580 2.5 µM, read-out: Viable cells (%)) was 57.3%. For the same compound, the viability at 50 µM ([1]; Homo sapiens, NCI-H69, Table 2, VP-16 50 µM, alone or with MK2.III 1.0 µM or SB203580 2.5 µM, read-out: Viable cells (%)) was 46.4%, the viability at 100 µM ([1]; Homo sapiens, NCI-H69, Table 2, VP-16 100 µM, alone or with MK2.III 1.0 µM or SB203580 2.5 µM, read-out: Viable cells (%)) was 45.4% and the viability at 150 µM ([1]; Homo sapiens, NCI-H69, Table 2, VP-16 150 µM, alone or with MK2.III 1.0 µM or SB203580 2.5 µM, read-out: Viable cells (%)) was 37.5%. For the same compound, the “Decrease of viability by single agent” value [7] was 50%.
